Data: patent US20070117776A1, “Low Dose Therapy Of DNA Methylation Inhibitors” (priority 2005, published 2007)

Columns and labels:
[1] = tested on: intermediate and high-risk MDS and CMML; test: Randomized low dose decitabine schedules in patients with hematological disorders; format: in vivo, human
Procedure: Patients with intermediate and high-risk MDS and CMML were randomized to one of three decitabine schedules: (1) 20 mg/m^2 infused intravenously over 1 hour, once daily, for five days; (2) 10 mg/m^2, infused intravenously over one hour, once daily, for ten days; (3) 10 mg/m^2, injected subcutaneously twice a day, for five days.
Decitabine was supplied as a lyophilized powder, 50 mg in 20 mL glass vials, for reconstitution with 10 mL sterile water (Supergen, Inc., Dublin Calif., through Pharmachemie B.V., Haarlem, The Netherlands). The reconstituted stock solution contained 5 mg/mL decitabine, 6.8 mg KH2PO4, and approximately 1.1 mg/mL NaOH. The reconstituted solution was further diluted for intravenous infusion or subcutaneous injection with pharmaceutically acceptable cold infusion fluids (physiological saline, glucose-saline, lactated Ringer's solution). The time delay between preparation of the infusion/injection solution was kept as short as practicable, with refrigerated storage prior to administration not to exceed 4-5 hours.
Patients received one course of treatment (as defined above) every 28 days. […] Patients were allowed 40,000 units of erythropoietin weekly for anemia, or GCSF if needed.
The age of 92 treated patients ranged from 31-90 years (median: 65, with 66% of patients being older than 60); according to IPSS prognostic scores, 25% of patients were classified as intermediate-1, 38% as intermediate-2, 19% as high risk, and 17% as having chronic myelomonocytic leukemia (CMML). […] Twenty-seven patients had had prior erythropoietin; 17 had had prior GCSF, and 22 had had other prior therapies.

[2] = Maximum degradation in the infusion estimated for selected infusion schedules; format: physicochemical; settings: 0.1-1 mg/mL; for Average degradation rate: estimate assuming linearity
Procedure: Table 3 summarizes the maximum degradation estimated using a series of infusion schedules (S1 through S7 as denoted in the table) selected to establish degradation limits and acceptable shelf life of the diluted solution. The average degradation rate used for calculations is based on the assumption that degradation in solutions is linear and the slope between the initial and the terminal time point is considered to be worst case. If the solution is prepared appropriately and used immediately, degradation would be minimal. It is recommended that a diluted infusion should not be stored longer than seven hours in a refrigerator for a three hour infusion or longer than 10 hours in a refrigerator for a two hour infusion in order to stay within the 10% maximum limit allowed for degradation.

cytidine deaminases = settings: enzymatic degradation by cytidine deaminases, particularly in the small intestine; cited from earlier work
[3] = all three schedules, 92 treated patients

- myelosuppression ([1]; 10-day IV cohort (10 mg/m^2 over one hour, once daily, ten days) compared with the other schedules): more myelosuppression
- Average degradation rate ([2]; @ 4° C.): 0.40 %/hr
- Average degradation rate ([2]; @ Room Temperature): 2.44 %/hr
- Maximum degradation ([2]; S1 (6 hr stored @4° C. + 3 hr @ RT during infusion)): 9.72 % peak area
- Maximum degradation ([2]; S2 (7 hr stored @4° C. + 3 hr @ RT during infusion)): 10.12 % peak area
- Maximum degradation ([2]; S3 (7 hr stored @4° C. + 2 hr @ RT during infusion)): 7.68 % peak area
- Maximum degradation ([2]; S4 (8 hr stored @4° C. + 3 hr @ RT during infusion)): 10.52 % peak area
- Maximum degradation ([2]; S5 (8 hr stored @4° C. + 2 hr @ RT during infusion)): 8.08 % peak area
- Maximum degradation ([2]; S6 (9 hr stored @4° C. + 2 hr @ RT during infusion)): 8.48 % peak area
- Maximum degradation ([2]; S7 (10 hr stored @4° C. + 2 hr @ RT during infusion)): 8.88 % peak area
Structure (SMILES): Nc1ncn([C@H]2C[C@H](O)[C@@H](CO)O2)c(=O)n1 [Decitabine, 4-amino-1-(2-deoxy-β-D-erythro-pentofuranosyl)-1,3,5-triazin-2(1H)-one]
- comparison of schedules ([1]; 5-day IV arm versus the other arms, after 55 patients were randomized): statistically superior
- complete remission (patients with CR/patients treated) ([1]; 5-day IV courses: 20 mg/m^2 infused intravenously over 1 hour, once daily, for five days): 24/57
- complete remission (patients with CR/patients treated) ([1]; 5-day subcutaneous courses: 10 mg/m^2 injected subcutaneously twice a day, for five days): 4/14
- complete remission (patients with CR/patients treated) ([1]; 10-day IV courses: 10 mg/m^2 infused intravenously over one hour, once daily, for ten days): 4/17
- CB combined with bone marrow CR [1, 3]: Thirteen
- Partial remission (PR) [1, 3]: seven
- clinical benefit (CB) [1, 3]: Sixteen
- complete remission (CR) [1, 3]: 32 patients
- number of treatment courses in patients who achieved CR (median) ([1]; one course every 28 days): 3
- number of treatment courses in patients who achieved CR (range) ([1]; one course every 28 days): one to six
- patients who showed a response (overall) ([1]; patients who received at least one course of treatment): 76%
- oral bioavailability (cytidine deaminases): reduced oral bioavailability
